Data: ChEMBL document CHEMBL1201862, “PubChem BioAssay data set” (2004)
Values joined by “and” are separate entries in the source; they are usually repeats but may differ in a detail not shown here. Identical values can stand only once.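 In this assay, cells in 96-well plates receive the compound at five concentrations for 48 hours. Endpoints are linearly interpolated between the surrounding concentrations. GI50: concentration for 50% inhibition of growth.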 Active and inactive are the calls of the source. Rule as the data show it: active = GI50 up to about 1.1 µM and inactive = higher.

Key:
Experiment in all cases: NCI tumour cell line growth inhibition, 48 h
COLO 205 = tested on: COLO 205
KM12 = tested on: KM12
SR = tested on: SR
OVCAR-4 = tested on: OVCAR-4
SK-MEL-28 = tested on: SK-MEL-28
SN12C = tested on: SN12C
IGROV-1 = tested on: IGROV-1
NCI-H226 = tested on: NCI-H226
TK-10 = tested on: TK-10
K562 = tested on: K562
A549 = tested on: A549
EKVX = tested on: EKVX
SNB-75 = tested on: SNB-75
UO-31 = tested on: UO-31
786-0 = tested on: 786-0
SK-MEL-5 = tested on: SK-MEL-5
ACHN = tested on: ACHN
PC-3 = tested on: PC-3
NCI/ADR-RES = tested on: NCI/ADR-RES

SMILES	GI50 (COLO 205)	GI50 (KM12)	GI50 (SR)	GI50 (OVCAR-4)	GI50 (SK-MEL-28)	GI50 (SN12C)	GI50 (IGROV-1)	GI50 (NCI-H226)	GI50 (TK-10)	GI50 (K562)	GI50 (A549)	GI50 (EKVX)	GI50 (SNB-75)	GI50 (UO-31)	GI50 (786-0)	GI50 (SK-MEL-5)	GI50 (ACHN)	GI50 (PC-3)	GI50 (NCI/ADR-RES)
CCCCCCCCCCCCCCCCCCOCC(C[N+]1(C)CCC(O)CC1)OCC (configuration not stated)	3.38 µM (inactive)	1.84 µM (inactive)	1.78 µM (inactive)	4.1 µM (inactive)	12.7 µM (inactive)	4.06 µM (inactive)	5.13 µM (inactive)	3.08 µM (inactive)	3.92 µM (inactive)	4.17 µM (inactive)	5.87 µM (inactive)	13.8 µM (inactive)	3.95 µM (inactive)	11.9 µM (inactive)	4.18 µM (inactive)				
CC1OC(OC23C(=O)CC(C)(O)CC2(O)C=CC2=C3C(=O)c3ccc(C4CC(OC5CCC(OC6CC(O)C(O)C(C)O6)C(C)O5)C(O)C(C)O4)c(O)c3C2=O)CCC1O (configuration not stated)	3.79 µM (inactive) and 2.33 µM (inactive)	17.5 µM (inactive) and 14.4 µM (inactive)	> 100 µM (inactive)	16.4 µM (inactive) and 19.1 µM (inactive)	15.5 µM (inactive) and 14.3 µM (inactive)	18.3 µM (inactive) and 16.5 µM (inactive)	16.5 µM (inactive) and 16.4 µM (inactive)	19.5 µM (inactive) and 18.6 µM (inactive)	21.6 µM (inactive) and 17.7 µM (inactive)	14.5 µM (inactive) and 9.4 µM (inactive)	29.6 µM (inactive) and 25.1 µM (inactive)	18.7 µM (inactive) and 17.7 µM (inactive)	16.3 µM (inactive) and 16.9 µM (inactive)	18 µM (inactive) and 18.4 µM (inactive)	17.4 µM (inactive) and 15.8 µM (inactive)	19 µM (inactive) and 16.1 µM (inactive)	17 µM (inactive) and 15.7 µM (inactive)		
C[N+](C)(C)CC1CCC(C[N+](C)(C)C)C1=NO (configuration not stated)	> 100 µM (inactive)	> 100 µM (inactive)	> 100 µM (inactive)	> 100 µM (inactive)	> 100 µM (inactive)	> 100 µM (inactive)	> 100 µM (inactive)	> 100 µM (inactive)		> 100 µM (inactive)	> 100 µM (inactive)	> 100 µM (inactive)	> 100 µM (inactive)	> 100 µM (inactive)	> 100 µM (inactive)	> 100 µM (inactive)	> 100 µM (inactive)		
COC(O)C(=O)c1c2c(cc3c1CC1(Cc4cc5c(cc4C1)CCC5)C3)CCC2 (configuration not stated)			3.99 µM (inactive)	18.5 µM (inactive)	20 µM (inactive)		13 µM (inactive)		17.7 µM (inactive)	13.2 µM (inactive)	16.8 µM (inactive)	22.2 µM (inactive)	17.1 µM (inactive)	18.7 µM (inactive)	14 µM (inactive)	17.3 µM (inactive)	15.7 µM (inactive)	16.7 µM (inactive)	17.3 µM (inactive)
COc1cc(C=O)c(-c2cc(OC)c(OC)cc2C=O)cc1OC	> 100 µM (inactive)	> 100 µM (inactive)	24.3 µM (inactive)	> 100 µM (inactive)	47.8 µM (inactive)	> 100 µM (inactive)	> 100 µM (inactive)	> 100 µM (inactive)	> 100 µM (inactive)	36.7 µM (inactive)	> 100 µM (inactive)	> 100 µM (inactive)	> 100 µM (inactive)	64.6 µM (inactive)	> 100 µM (inactive)	76.6 µM (inactive)	> 100 µM (inactive)		
O=c1oc2c(O)c(O)c(O)c3c(=O)oc4c(O)c(O)cc1c4c23 [FLAVELLAGIC ACID]	99.5 µM (inactive)	> 100 µM (inactive)	> 100 µM (inactive)	16.2 µM (inactive)	> 100 µM (inactive)	18.6 µM (inactive)	> 100 µM (inactive)	83 µM (inactive)	> 100 µM (inactive)	25.6 µM (inactive)	> 100 µM (inactive)	> 100 µM (inactive)	47.6 µM (inactive)	38.4 µM (inactive)	62.8 µM (inactive)	> 100 µM (inactive)	73.1 µM (inactive)		
O=S(=O)(/C=C/CS(=O)(=O)c1ccccc1)c1ccccc1	36.1 µM (inactive)	13.8 µM (inactive)	1.66 µM (inactive)	35.6 µM (inactive)	31.8 µM (inactive)	25.3 µM (inactive)	39.8 µM (inactive)	19.3 µM (inactive)	43.7 µM (inactive)	25.3 µM (inactive)	22.4 µM (inactive)	41.6 µM (inactive)	36.1 µM (inactive)	42.5 µM (inactive)	24.3 µM (inactive)	40.8 µM (inactive)	53.3 µM (inactive)		
CC[As](CC)SCC1OC(OC(C)=O)C(OC(C)=O)C(OC(C)=O)C1OC(C)=O (configuration not stated)	2.42 µM (inactive)	19.5 µM (inactive)	12 µM (inactive)	21.9 µM (inactive)	4.01 µM (inactive)	14.4 µM (inactive)	18.3 µM (inactive)	14.3 µM (inactive)	16.6 µM (inactive)	4.38 µM (inactive)	21 µM (inactive)	21.4 µM (inactive)	25.5 µM (inactive)	16.2 µM (inactive)	14.4 µM (inactive)	15.1 µM (inactive)	17.4 µM (inactive)		
O=c1c2ccccc2[nH]c2ccc3c(Cl)n[nH]c3c12	36.4 µM (inactive)	32.9 µM (inactive)	36.1 µM (inactive)	59.4 µM (inactive)	87.5 µM (inactive)	33.5 µM (inactive)	35 µM (inactive)	0.54 µM (active)	23.8 µM (inactive)	34.3 µM (inactive)	15.9 µM (inactive)	47.3 µM (inactive)	42.9 µM (inactive)	26.7 µM (inactive)	34.1 µM (inactive)	40.9 µM (inactive)	27.8 µM (inactive)		
Cc1cc(NS(=O)(=O)c2ccc(Nc3c4ccccc4nc4c(C(=O)NCCN(C)C)ccc(Cl)c34)cc2)no1	2.45 µM (inactive)	4.91 µM (inactive)	0.37 µM (active)	4.09 µM (inactive)	4.41 µM (inactive)	3.88 µM (inactive)	3.56 µM (inactive)	1.85 µM (inactive)	13.9 µM (inactive)	2.99 µM (inactive)	3.66 µM (inactive)	8.34 µM (inactive)	2.76 µM (inactive)	3.23 µM (inactive)	4.41 µM (inactive)	2 µM (inactive)	2.43 µM (inactive)		
Nc1nc(NC2C=C(CO)C(O)C2O)c([N+](=O)[O-])c(=O)[nH]1 (configuration not stated)	> 100 µM (inactive)	> 100 µM (inactive)	> 100 µM (inactive)	> 100 µM (inactive)	> 100 µM (inactive)	> 100 µM (inactive)	> 100 µM (inactive)	> 100 µM (inactive)	> 100 µM (inactive)	> 100 µM (inactive)	> 100 µM (inactive)	> 100 µM (inactive)	> 100 µM (inactive)	> 100 µM (inactive)	> 100 µM (inactive)	> 100 µM (inactive)	> 100 µM (inactive)		
